Assay results: ChEMBL document CHEMBL1139936, “Annonaceous acetogenin mimics bearing a terminal lactam and their cytotoxicity against cancer cells” (Bioorg Med Chem Lett, 2007)
Calls of active or inactive are those of the source. No cut-off for these calls is given here.

Assays:
[1] = Cytotoxicity against human Chang cells after 48 hrs by MTT assay; type: cell-based
[2] = (§1) Cytotoxicity against human BEL-7404 cells after 48 hrs by MTT assay; type: functional, cell-based; settings: BEL-7404, 48 h
B16 = assay: Cytotoxicity against […] B16 cells after 48 hrs by MTT assay; type: functional, cell-based; settings: Mus musculus; for IC50: B16, 48 h
SK-HEP1 = assay: Cytotoxicity against human SKHep1 cells after 48 hrs by MTT assay; type: functional, cell-based; settings: for IC50: SK-HEP1, 48 h
BEL-7404 = assay: as §1; type: functional, cell-based

Compound	Activity [1]	IC50 [2] [nM]	IC50 (B16) [nM]	IC50 (SK-HEP1) [nM]	Activity (SK-HEP1)	Activity (B16)	Activity (BEL-7404)
CCCCCCCCCC[C@H](O)COCCOC[C@@H](O)CCCCCCCCCCCCC1=C[C@H](C)OC1=O	Not Active	41	35	65	–	–	–
CCCCCCCCCC[C@H](O)COCCOC[C@@H](O)CCCCCCCCCCCCC1=C[C@H](C)N(C)C1=O	Not Active	234	13	589	–	–	–
CCCCCCCCCC[C@H](O)COCCOC[C@@H](O)CCCCCCCCCCCCC1=C[C@H](C)N(CCCNC(=O)C(F)(F)F)C1=O	Not Active	1350	995	–	inactive	–	–
CCCCCCCCCC[C@H](O)COCCOC[C@@H](O)CCCCCCCCCCCCC1=CCN(C)C1=O	Not Active	168	168	104	–	–	–
CCCCCCCCCC[C@H](O)COCCOC[C@@H](O)CCCCCCCCCCCCC1=C[C@H](C)NC1=O	Not Active	2200	35	–	inactive	–	–
CCCCCCCCCC[C@H](O)COCCOC[C@@H](O)CCCCCCCCCCCCC1=C[C@H](C)N(CCCNC(=O)CCCCCNC(=O)OC(C)(C)C)C1=O	Not Active	3200	–	–	inactive	inactive	–
CCCCCCCCCC[C@H](O)COCCOC[C@@H](O)CCCCCCCCCCCCC1=CC(C)(C)N(C)C1=O	Not Active	845	478	583	–	–	–
CCCCCCCCCC[C@H](O)COCCOC[C@@H](O)CCCCCCCCCCCCC1=C[C@H](C)N(CCCNC(=O)CCCCCNC(=O)CCCCCNC(=O)OC(C)(C)C)C1=O	Not Active	2500	–	–	inactive	inactive	–
CCCCCCCCCC[C@H](O)COCCOC[C@@H](O)CCCCCCCCCCCCC1=C[C@H](C)N(CCCNC(=O)CCCCCNC(=S)Nc2ccc3c(c2)C(=O)OC32c3ccc(O)cc3Oc3cc(O)ccc32)C1=O	Not Active	–	–	–	inactive	inactive	inactive
